From PubChem BioAssay (NCI) come the findings set out here.

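1) Cells in 96-well plates. 2) Compound, 48 h, 5 concentrations. 3) Linear interpolation between surrounding doses. 4) Unreached endpoint = highest concentration. TGI is the concentration that stops growth completely.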

Among the test systems are NCI-H522 lung; OVCAR-8 ovarian; DMS 114 small cell lung; DMS 273 small cell lung; HL-60(TB) leukemia; KM20L2 colon; M19-MEL melanoma; SNB-78 CNS; DLD-1 colon; LXFL 529 NSCLC.
Assay in all cases: NCI anticancer screen, dose series, 48 h

As for `COC(=O)C12CCC(C(=O)OC)(Cc3c(c4ccccc4n3S(=O)(=O)c3ccccc3)C1)C2=O` (stereo not drawn), the TGI in the test on NCI-H522 lung was 97.1 µM; in the test with OVCAR-8 ovarian, greater than 100 µM.

For the compound `CN(C)C(=S)Nc1nnc(NC23CC4CC(CC(C4)C2)C3)s1`, the TGI was determined as 63.1 µM in the test with DMS 114 small cell lung; 55.3 µM in the test on DMS 273 small cell lung; 31.9 µM in the test with HL-60(TB) leukemia; 24.8 µM with KM20L2 colon; 43.6 µM with M19-MEL melanoma; 34.9 µM in the test on NCI-H522 lung. For the same compound, the TGI in the test on OVCAR-8 ovarian and in the test on SNB-78 CNS was greater than 100 µM throughout.

Consider `CC(C)(C)OC(=O)N1C(C2=COc3ccccc3O2)=COc2ccccc21`, for which the figures for the TGI with HL-60(TB) leukemia, with NCI-H522 lung and with OVCAR-8 ovarian were 45.5 µM, 40.8 µM and greater than 100 µM, respectively.

In the case of `CN1CCc2c(sc3nc(Nc4ccccc4)n(N)c(=O)c23)C1`, the TGI in the test with HL-60(TB) leukemia and in the test on OVCAR-8 ovarian was greater than 100 µM throughout.

As to `C/C(Cl)=N\OC(=O)Nc1ccc([N+](=O)[O-])cc1`, the values for the TGI with HL-60(TB) leukemia, with NCI-H522 lung and with OVCAR-8 ovarian were 4.09 µM, 3.75 µM and 32.2 µM, respectively.

The compound `Nn1c(CNc2ccc(-c3nnc(Nc4ccc(Cl)cc4)n3N)cc2)nnc1Nc1ccc(Cl)cc1` showed a TGI in the test with NCI-H522 lung greater than 100 µM.

Regarding `NNC(N)=Nc1cccc2ccccc12`, the TGI with HL-60(TB) leukemia and in the test with OVCAR-8 ovarian was greater than 100 µM each time.

In the case of `O=C(O)CC(NC(=O)C(F)(F)F)C(=O)NC1Cc2ccccc2OC1=O` (stereo not drawn), the TGI with NCI-H522 lung and in the test on OVCAR-8 ovarian was greater than 100 µM each time.

Turning to `O=c1oc2ncccc2n1Cc1ccc([N+](=O)[O-])cc1`, the TGI with HL-60(TB) leukemia, in the test with NCI-H522 lung and with OVCAR-8 ovarian was greater than 100 µM throughout.

With `CC(C)OP(=O)(OC(C)C)C(C(F)(F)F)C(F)(F)F`, the TGI with HL-60(TB) leukemia, with NCI-H522 lung and in the test with OVCAR-8 ovarian was greater than 100 µM each time.

Take `CN1CN(c2ccccc2)C2(CCNCC2)C1=O`: the TGI in the test on HL-60(TB) leukemia, with NCI-H522 lung and in the test with OVCAR-8 ovarian was greater than 100 µM each time.

For the compound `O=C1/C(=C/c2ccc(O)cc2)NC(=S)N1CN1CCCCC1`, the TGI with HL-60(TB) leukemia, with NCI-H522 lung and in the test with OVCAR-8 ovarian was greater than 100 µM each time.

Consider `CN(Cc1cnc2nc(N)nc(N)c2n1)c1ccc(C(=O)NC(CCS(=O)(=O)O)C(=O)O)cc1` (stereo not drawn), for which the TGI is 1.62 µM with HL-60(TB) leukemia, greater than 100 µM in the test with NCI-H522 lung and greater than 100 µM in the test on OVCAR-8 ovarian.

Consider `CCCCC1Cc2cc(O)ccc2-c2n1c1cc(O)ccc1[n+]2C` (stereo not drawn) (tested in a mixture with another compound), for which the TGI in the test on HL-60(TB) leukemia was greater than 86.4 µM; in the test with NCI-H522 lung it was greater than 47.4 µM; with OVCAR-8 ovarian, greater than 100 µM.

For the compound `ON=C1CCCCC(=NO)CCCC1`, the TGI in the test on NCI-H522 lung and with OVCAR-8 ovarian was greater than 100 µM in each case.

With `CC1=NN(c2nc(N)nc(CS(C)(=O)=O)n2)C(C)(C)C1`, the TGI in the test with HL-60(TB) leukemia and with OVCAR-8 ovarian was greater than 100 µM throughout.

Take `C=C1c2nc3ccccc3n2C=C(c2ccc(Cl)cc2)N1c1ccc(OCCN2CCOCC2)cc1`: the TGI with HL-60(TB) leukemia was 35 µM.

Turning to `Cc1csc2c(P(=O)(OC(C)C)OC(C)C)c(-c3ccccc3)cn12`, the TGI with HL-60(TB) leukemia is 45.9 µM; with NCI-H522 lung it was 30.7 µM; in the test with OVCAR-8 ovarian, 33 µM.

Turning to `O=[N+]([O-])c1cc2n[nH]nc2c2nonc12`, the values for the TGI in the test on HL-60(TB) leukemia, in the test on NCI-H522 lung and with OVCAR-8 ovarian were 61.3 µM, 32.6 µM and 58.1 µM, respectively.

For `CN(c1c(Cl)cccc1Cl)S(=O)(=O)c1ccccc1[N+](=O)[O-]`, the TGI in the test on NCI-H522 lung and with OVCAR-8 ovarian was greater than 100 µM throughout.

As for `C=C1C(=O)OC2/C=C(\C)CC/C=C(/C)CC(OC(=O)/C(=C/CO)CO)C12` (stereo not drawn), the TGI in the test on HL-60(TB) leukemia was 20.7 µM; with NCI-H522 lung it was 39.9 µM; in the test on OVCAR-8 ovarian, greater than 100 µM.

Consider `O=C(ON=c1c2ccccc2ccc2ccccc12)c1cc([N+](=O)[O-])cc([N+](=O)[O-])c1`, for which the TGI in the test with HL-60(TB) leukemia and in the test on OVCAR-8 ovarian was greater than 100 µM in each case.

For `O=C(Nc1ccc(Cl)cc1)c1cc(S(=O)(=O)Nc2n[nH]c(=O)[nH]2)c(SSc2cc(Cl)c(C(=O)Nc3ccc(Cl)cc3)cc2S(=O)(=O)Nc2n[nH]c(=O)[nH]2)cc1Cl`, the TGI with HL-60(TB) leukemia, with NCI-H522 lung and with OVCAR-8 ovarian was greater than 100 µM in each case.

For the compound `CCOC(=O)c1ccc(N=C2SC(=S)N(c3ccc(F)cc3)C2=Nc2ccc(C(=O)OCC)cc2)cc1`, the TGI is 22.3 µM in the test with HL-60(TB) leukemia, 19.1 µM in the test on NCI-H522 lung and 22.3 µM in the test with OVCAR-8 ovarian.

As for `Cc1c2c(c(C)c3c[n+](C)ccc13)Oc1ccccc1O2`, the results for the TGI in the test with HL-60(TB) leukemia, in the test on NCI-H522 lung and in the test on OVCAR-8 ovarian were 39.4 µM, 17.1 µM and greater than 54 µM, respectively.

As to `NS(=O)(=O)c1nnc(NC(=O)CCC(=O)O)s1`, the TGI with HL-60(TB) leukemia, in the test on NCI-H522 lung and in the test with OVCAR-8 ovarian was greater than 100 µM in each case.

Consider `O=C(NC(=O)c1cn(CCN2CCNCC2)c(=O)[nH]c1=O)OCc1ccccc1`, for which the TGI in the test on DLD-1 colon, in the test with DMS 114 small cell lung, with HL-60(TB) leukemia, in the test on LXFL 529 NSCLC, in the test with M19-MEL melanoma and in the test on NCI-H522 lung was greater than 100 µM throughout. Moreover, the TGI in the test on OVCAR-8 ovarian and in the test on SNB-78 CNS was greater than 100 µM each time.

For the compound `COc1ccc2c(c1)/C(=C(\C(Cl)=C(\Cl)N1CCCCC1)[N+](=O)[O-])N2`, the TGI with HL-60(TB) leukemia, with NCI-H522 lung and with OVCAR-8 ovarian was greater than 100 µM each time.

In the case of `C=CCN1CCC(OC(=O)C(O)(/C=C\CC)C2CCCC2)CC1` (stereo not drawn), the TGI in the test on HL-60(TB) leukemia, in the test with NCI-H522 lung and in the test on OVCAR-8 ovarian was greater than 100 µM in each case.

As for `CCOC(=O)C(SCCO)C(C(=O)OCC)n1ccc(N)nc1=O` (stereo not drawn), the TGI in the test on HL-60(TB) leukemia, in the test on NCI-H522 lung and in the test on OVCAR-8 ovarian was greater than 100 µM throughout.
